The values below come from patent publication US20060173079A1, “Compositions and methods for improving the condition of patients suffering from copd and other diseases” (priority 2003, published 2006).

SMILES strings stand for the structures. Entries after “also recorded” stand apart in the source; their conditions may differ. Where only a bound is given, the exact number is not on record here.

Data set [1] can be described thus: Plasma urea concentration after test drinks. The class given is in vivo, human. Conditions: for plasma urea compared to baseline values: healthy control and COPD group, 30.0 mg GLU/kg or 29.8 mg glutamine/kg every 20 min for 4 hours. An excerpt:
The 3 test drinks were studied on different days and in a randomized order using a similar study protocol.

Data set [2] has as its system whole body protein breakdown. Briefly: Whole body protein breakdown (phenylalanine turnover, stable isotope methodology). The format is in vivo, human. Particulars: young healthy volunteers, during GLU supplementation. Here is the method:
In the young healthy volunteers, whole body protein and 3-methylhistidine turnover were measured during glutamate supplementation using stable isotope methodology. […] In order to elucidate the contribution of muscle to whole body protein metabolism, the rate of myofibrillar protein breakdown (3-methylhistidine turnover) was simultaneously measured.

Data set [3] can be described thus: Plasma lactate response to exercise. The class given is in vivo, human. Here is the method: (§1) The subjects were measured before and during a submaximal constant work rate cycle test of 20 minutes (at 50% of their maximal workload previously achieved during an incremental exercise test).
Data set [4] in a line: Plasma GLU concentration after continuous ingestion of a glutamate enriched drink. The format is in vivo, human. The source says:
When using a continuous infusion protocol of stable isotopes, plasma glutamate concentrations have to be in steady state condition before metabolic data can be obtained.
Subsequently, we performed several pilot studies (summary see FIG. 1) in order to obtain the optimal dose of glutamate. Pilot studies included continuous ingestion of a glutamate enriched drink and evaluation of the concentration of glutamate and related amino acids in plasma.
In the 2nd pilot study, we decided to use the pure form of glutamate to avoid the large sodium content. […] Blood samples were taken to evaluate plasma glutamate level.
This protocol was used in further studies.

The test system of data set [5] is myofibrillar (muscle) protein breakdown. Description: Myofibrillar protein breakdown (3-methylhistidine turnover / rate of appearance). The class given is in vivo, human. Particulars: for 3-methylhistidine rate of appearance in plasma during exercise: submaximal cycle exercise 20 min at 50% maximal workload, GLU versus water.
Data set [6] is described as follows: GLU appearance in plasma and splanchnic GLU extraction (stable isotope methodology). The class given is in vivo, human. Conditions: young subjects, after start of GLU ingestion.
Data set [7] relates to whole body leucine turnover. Description: Whole body leucine turnover (leucine tracer). The class given is in vivo, human. Here is the method: FIG. 11: Whole body leucine rate of appearance gives a reflection of whole body leucine turnover and is the sum of leucine turnover coming from protein breakdown and from other (non-protein) sources.
as §1

Data set [8] in a line: Side effects / tolerance incl. Chinese restaurant syndrome (food tolerance questionnaire). The format is in vivo, human. Particulars: for side effects / adverse complaints (including Chinese Restaurant syndrome symptoms): COPD patients and healthy control subjects, 6-7 g/hour for 4-6 hours. Here is the method: In all the pilot studies, the patients and the healthy control subjects in the age ranging from 20 to 80 years were run through a protocol to determine feasibility.
In the experiments the intake of glutamate is usually in the order of 6-7 g/hour for a period of 4-6 hours meaning a total intake of […].
Moreover, a placebo (glutamine) was used for comparison.

The conditions of data set [9]: cited from earlier work.

With `NC(=O)CC[C@H](N)C(=O)O` [GLN, glutamine, reference compound], the “plasma urea compared to baseline values” in data set [1] was “increased”.

With `N[C@@H](CCC(=O)O)C(=O)O` [GLU, L-glutamic acid], in data set [2], the “whole body protein breakdown rate (phenylalanine turnover)” value is given as “gradual decrease; also recorded: significantly decreased”. Moreover, the “increase in plasma lactate concentration during exercise versus water” value in data set [3] (COPD group (text to FIG. 13)) and in [3] (healthy control group (FIG. 13 legend)) was “lower increase” in each case. Besides, in data set [4] (4 subjects, 30 mg GLU/kg body weight every 20 min (FIG. 2)), the “time to steady state in GLU concentration after start of ingestion” value is not above 2 h. Also, the “rise in plasma GLU concentration, COPD group versus control group” value in data set [4] (8 COPD patients vs 8 healthy controls, 30 mg GLU/kg every 20 min) is listed as “significantly lower”. Further, the “plasma GLU level compared to baseline” value in data set [4] (COPD patients and healthy age-matched control subjects (both groups), 30 mg GLU/kg every 20 min, 120 min after start) was “significantly increased; also recorded: significant increase”. Also, the “steady state in plasma glutamate level” value in [4] (healthy volunteers, 69.4 mg glutamate/kg body weight every 30 minutes (2.4% solution)) is reported as 30 min intervals were too long to reach a steady state. Moreover, the “time to steady state of plasma glutamate concentration” value in data set [4] (healthy young volunteers, 30 mg GLU/kg body weight every 20 min) was not above 120 min. In addition, the “increase in the plasma glutamate concentration” value in [4] (healthy young volunteers, 30 mg GLU/kg body weight every 20 min (2.4% solution), total 300 mg/kg) is listed as “about 500%”. The “plasma GLU concentration” value in data set [4] (healthy young volunteers, GLU added to carbohydrate (maltodextrin) whey protein meal (carbohydrate:protein:glutamate=5:2:5)) is listed as “significantly increased to steady state values”. In data set [5] (COPD group, cycle exercise, ingesting glutamate), the “myofibrillar protein breakdown during the first 10 minutes of exercise” value is given as “reduction”. The “3-methylhistidine rate of appearance in plasma during exercise” value in data set [5] (COPD group) is recorded as “abolished the increase”; in data set [5] (COPD group, listed as glutamate), “diminished”. Further, in data set [5] (young healthy volunteers at rest, in less than one hour after GLU ingestion), the “myofibrillar protein breakdown (3-methylhistidine turnover)” value is recorded as “reduction; also recorded: decreased”. In addition, the “time to steady state of whole body GLU plasma appearance” value in [6] was not above 1.5 h. Besides, in [7] (at rest, COPD and control subjects), the “whole body leucine turnover not related to protein turnover” value was “reduction”. In data set [7] (cycle exercise 20 min at 50% maximal workload, 30 mg GLU/kg every 20 min versus water, COPD (and control) group), the “increase in whole body leucine turnover during exercise” value was “diminished the increase”. The “plasma urea compared to baseline values” in [1] is reported as “decreased”. In addition, in data set [1] (healthy young volunteers, GLU with carbohydrate (maltodextrin) protein meal), the “plasma urea concentration after intake” value is “decreased”. Moreover, in data set [8] (26 healthy volunteers, 30 mg GLU/kg every 20 min), the “CRS effects versus placebo (glutamine)” value was “No significant differences”. Moreover, in [8] (26 healthy volunteers, 30 mg GLU/kg every 20 min, questionnaire until 2 hours after last ingestion), the “number and severity of complaints versus placebo (glutamine)” value is listed as “No differences”. In addition, the “subjects having the symptoms known as Chinese restaurant syndrome” value in [8] (26 healthy volunteers, 30 mg GLU/kg every 20 min, until 2 hours after ingestion) is recorded as “less than 5%”. In addition, the entries for the “side effects / adverse complaints (including Chinese Restaurant syndrome symptoms)” value in data set [8] and in [8] (listed as glutamate) were “none” and “do not occur”, respectively.

With `N[C@@H](CCC(=O)O)C(=O)[O-].[Na+]` [MSG, monosodium glutamate], the “side effects after high (bolus) dose” value in data set [9] (Graham et al., healthy subjects, bolus MSG) was “transient headaches”. The “plasma GLU concentration versus dose” value in [9] (Stegink et al. and Ghezzi et al., healthy volunteers, various concentrations of MSG) is “increased proportionally to the given dose”. In data set [9] (young healthy men, glutamate provided in excess as MSG), the “muscle GLU concentration” value is listed as “increase”. In data set [8] (healthy volunteers, 3.6% MSG solution, 80.3 mg MSG/kg body weight every 30 minutes), the “tolerance of the drink” value was “well”.
